Test results reported in ChEMBL document CHEMBL2021825, “Dimerization of β-tryptase inhibitors, does it work for both basic and neutral P1 groups?” (Bioorg Med Chem Lett, 2012).
Active and inactive are the calls of the source. The rule behind the calls is not given here.

Tests used:
[1] = Inhibition of human recombinant beta-tryptase using chromogenic substrate S-2366
Homo sapiens = organism: Homo sapiens; test: Inhibition of human recombinant beta-tryptase using chromogenic substrate S-2366 at 30 uM
[2] = test system: Tryptase beta-1 (Homo sapiens), Q15661 [A190S]; test: Inhibition of human recombinant beta-tryptase A190S mutant using chromogenic substrate S-2366
Sequence of Tryptase beta-1 (Homo sapiens), Q15661 [A190S] (Q15661 whole entry A190S): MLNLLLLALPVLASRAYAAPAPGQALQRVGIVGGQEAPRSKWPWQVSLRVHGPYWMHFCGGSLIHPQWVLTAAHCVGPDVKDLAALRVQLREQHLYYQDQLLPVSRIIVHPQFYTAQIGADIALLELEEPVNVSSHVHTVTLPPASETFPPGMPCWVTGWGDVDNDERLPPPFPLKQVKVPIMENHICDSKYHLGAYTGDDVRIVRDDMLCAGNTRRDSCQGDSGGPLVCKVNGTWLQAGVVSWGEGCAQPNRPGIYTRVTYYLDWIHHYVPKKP

With `N=C(N)c1cccc(C2CCN(C(=O)c3cccc(CCCCc4cccc(C(=O)N5CCC(c6cccc(C(=N)N)c6)CC5)c4)c3)CC2)c1` the Ki [1] was 0.3 nM.
For `O=C1CN(Cc2cc(-c3ccc(Cl)s3)on2)CCN1CCCCCCCCCCN1CCN(Cc2cc(-c3ccc(Cl)s3)on2)CC1=O`, the inhibition (Homo sapiens) was “inactive”.
Work on `NCc1cccc(C2CCN(C(=O)c3ccccc3)CC2)c1` yielded a Ki [1] of 1900 nM.
Compound `NCc1cccc(C2CCN(C(=O)c3cccc(C#CC#Cc4cccc(C(=O)N5CCC(c6cccc(CN)c6)CC5)c4)c3)CC2)c1` has a Ki [1] of 0.34 nM.
With `Nc1ncnc2cc(CN3CCN(Cc4cc(-c5ccc(Cl)s5)on4)CC3=O)ccc12` the inhibition [2] was “inactive”.
`NCc1cccc(C2CCN(C(=O)c3cccc(-c4ccc5c(c4)NC(c4c[nH]c6cc(-c7cccc(C(=O)N8CCC(c9cccc(CN)c9)CC8)c7)ccc46)C5)c3)CC2)c1` (stereo not drawn) showed a Ki [1] of 3 nM.
With `NCc1cccc(C2CCN(C(=O)c3cccc(CCCCc4cccc(C(=O)N5CCC(c6cccc(CN)c6)CC5)c4)c3)CC2)c1` the Ki [1] was 2 nM.
For `N=C(N)c1cccc(C2CCN(C(=O)c3cccc(C#CC#Cc4cccc(C(=O)N5CCC(c6cccc(C(=N)N)c6)CC5)c4)c3)CC2)c1`, the Ki [1] was 0.29 nM.
